Assays:
[1] = system: Calu-3; assay: relative viability EC50 (midpoint between 100% and the lowest measured viability); higher = less toxic; settings: 72 h
[2] = system: HepG2; assay: as above; settings: 72 h
[3] = system: U2OS; assay: as above; settings: 72 h
[4] = system: A549-ACE2 infected with SARS-CoV-2; assay: SARS-CoV-2 infection rate relative to DMSO; higher = more infection; settings: 24 h
[5] = system: Calu-3; assay: cell viability relative to DMSO; higher = less toxic; settings: 72 h
[6] = system: Caco-2; assay: as above; settings: 72 h
[7] = system: Vero E6; assay: as above; settings: 72 h
[8] = system: HepG2; assay: as above; settings: 72 h
[9] = system: U2OS; assay: as above; settings: 72 h
[10] = system: A549-ACE2; assay: phospholipidosis EC50; higher = less potent phospholipidosis inducer
[11] = system: A549-ACE2; assay: drug-induced phospholipidosis relative to tamoxifen; higher = more phospholipidosis
[12] = system: A549-ACE2 infected with SARS-CoV-2; assay: morphology score (similarity to uninfected cells); higher = more like uninfected cells; settings: 24 h
[13] = system: Calu-3; assay: drug sensitivity score (DSS) for viability; higher = more toxic; extreme values may be limits of the assay; settings: 72 h
[14] = system: Caco-2; assay: as above; settings: 72 h
[15] = system: Vero E6; assay: as above; settings: 72 h
[16] = system: HepG2; assay: as above; settings: 72 h
[17] = system: U2OS; assay: as above; settings: 72 h
[18] = system: A549-ACE2 infected with SARS-CoV-2; assay: cell count relative to DMSO; higher = less toxic; settings: 24 h
[19] = system: Caco-2; assay: relative viability EC50 (midpoint between 100% and the lowest measured viability); higher = less toxic; settings: 72 h
[20] = system: Vero E6; assay: as above; settings: 72 h

C[C@H](Oc1cc(-c2cnn(C3CCNCC3)c2)cnc1N)c1c(Cl)ccc(F)c1Cl [crizotinib-(S)]
Settings	drug sensitivity score	relative viability EC50 [µM]
[1]	–	3.21
[2]	–	2.22
[3]	–	2.61
[13]	3.2	–
[14]	2.6	–
[15]	0.8	–
[16]	4.45	–
[17]	3.9	–

Settings	SARS-CoV-2 infection rate [%]	cell count [%]	cell viability [%]	morphology score	phospholipidosis EC50 [µM]
[4], 0.1 µM	96	–	–	–	–
[4], 0.3 µM	100	–	–	–	–
[4], 1 µM	94	–	–	–	–
[4], 3 µM	30	–	–	–	–
[4], 10 µM	24	–	–	–	–
[4], 30 µM	82	–	–	–	–
[5], 1 nM	–	–	97.8	–	–
[5], 10 nM	–	–	96.2	–	–
[5], 100 nM	–	–	100.3	–	–
[5], 1000 nM	–	–	100.4	–	–
[5], 10000 nM	–	–	40	–	–
[6], 1 nM	–	–	93.9	–	–
[6], 10 nM	–	–	95.3	–	–
[6], 100 nM	–	–	99.2	–	–
[6], 1000 nM	–	–	95.1	–	–
[6], 10000 nM	–	–	62.1	–	–
[7], 1 nM	–	–	97.2	–	–
[7], 10 nM	–	–	99.6	–	–
[7], 100 nM	–	–	100	–	–
[7], 1000 nM	–	–	97	–	–
[7], 10000 nM	–	–	80.7	–	–
[8], 1 nM	–	–	100	–	–
[8], 10 nM	–	–	108	–	–
[8], 100 nM	–	–	104	–	–
[8], 1000 nM	–	–	90.9	–	–
[8], 10000 nM	–	–	43.3	–	–
[9], 1 nM	–	–	98.3	–	–
[9], 10 nM	–	–	96.3	–	–
[9], 100 nM	–	–	99.2	–	–
[9], 1000 nM	–	–	96	–	–
[9], 10000 nM	–	–	41.1	–	–
[10], 24 h	–	–	–	–	1.79
[10], 48 h	–	–	–	–	3.04
[10], 72 h	–	–	–	–	3.1
[12], 0.1 µM	–	–	–	0.15	–
[12], 0.3 µM	–	–	–	0.025	–
[12], 1 µM	–	–	–	0.27	–
[12], 3 µM	–	–	–	0.71	–
[12], 10 µM	–	–	–	0.36	–
[12], 30 µM	–	–	–	-0.08	–
[18], 0.1 µM	–	100	–	–	–
[18], 0.3 µM	–	102	–	–	–
[18], 1 µM	–	87	–	–	–
[18], 3 µM	–	93	–	–	–
[18], 10 µM	–	109	–	–	–
[18], 30 µM	–	18	–	–	–

drug-induced phospholipidosis [%], [11]
Settings	0.3 µM	0.833333 µM	3.33333 µM	6.66667 µM	10 µM	30 µM
24 h	8.27	14.6	93.6	107	67.9	67.2
48 h	6.57	10.9	65	95.4	72.5	79.1
72 h	6.4	9.01	64.9	97.9	71.4	94.9

CN(C)c1ccc(-c2nc3c(N4CCN(CC(=O)Nc5nccs5)CC4)c(Cl)cnc3[nH]2)cc1
Settings	drug sensitivity score	relative viability EC50 [µM]
[1]	–	> 10
[2]	–	> 10
[13]	0	–
[14]	0	–
[15]	0	–
[16]	0	–
[17]	2.8	–
[19]	–	> 10
[20]	–	> 10

Settings	SARS-CoV-2 infection rate, [4] [%]	cell count, [18] [%]	cell viability, [5] [%]	cell viability, [6] [%]	cell viability, [7] [%]	cell viability, [8] [%]	cell viability, [9] [%]	morphology score, [12]
1 nM	–	–	102	99.6	94.5	105	97.1	–
10 nM	–	–	95.7	103	97.6	105	90.9	–
100 nM	–	–	91.3	96.4	88.7	92	98	–
0.3 µM	94	101	–	–	–	–	–	0.26
1000 nM	–	–	109	94.7	95.8	99.9	89.3	–
3 µM	101	97	–	–	–	–	–	-0.1
10 µM	96	97	–	–	–	–	–	0.16
10000 nM	–	–	91.5	98.7	100	98.2	67.4	–
30 µM	65	83	–	–	–	–	–	0.47

drug-induced phospholipidosis [%], [11]
Settings	0.3 µM	0.833333 µM	3.33333 µM	6.66667 µM	10 µM	30 µM
24 h	4.66	-0.19	5.5	0.89	5.75	7.19
48 h	6.88	1.34	2.05	1.71	1.43	6.09
72 h	3.52	-6.12	-1.19	0.0519	-2.06	6.76

COc1cc(-n2cnc3cc(-c4ccc(Cl)cc4)sc3c2=O)ccc1OCCN1CCCC1
Settings	drug sensitivity score	relative viability EC50 [µM]
[1]	–	> 10
[3]	–	> 10
[13]	0	–
[14]	0	–
[15]	0	–
[16]	2	–
[17]	0	–
[19]	–	> 10
[20]	–	> 10

Settings	SARS-CoV-2 infection rate [%]	cell count [%]	cell viability [%]	morphology score	phospholipidosis EC50 [µM]
[4], 0.3 µM	98	–	–	–	–
[4], 3 µM	73	–	–	–	–
[4], 10 µM	20	–	–	–	–
[4], 30 µM	18	–	–	–	–
[5], 1 nM	–	–	102	–	–
[5], 10 nM	–	–	102	–	–
[5], 100 nM	–	–	100	–	–
[5], 1000 nM	–	–	101	–	–
[5], 10000 nM	–	–	89.3	–	–
[6], 1 nM	–	–	111	–	–
[6], 10 nM	–	–	88.4	–	–
[6], 100 nM	–	–	104	–	–
[6], 1000 nM	–	–	103	–	–
[6], 10000 nM	–	–	88.7	–	–
[7], 1 nM	–	–	110	–	–
[7], 10 nM	–	–	104	–	–
[7], 100 nM	–	–	107	–	–
[7], 1000 nM	–	–	93.4	–	–
[7], 10000 nM	–	–	93.6	–	–
[8], 1 nM	–	–	108	–	–
[8], 10 nM	–	–	108	–	–
[8], 100 nM	–	–	108	–	–
[8], 1000 nM	–	–	93.9	–	–
[8], 10000 nM	–	–	73.2	–	–
[9], 1 nM	–	–	92.4	–	–
[9], 10 nM	–	–	95.9	–	–
[9], 100 nM	–	–	95.7	–	–
[9], 1000 nM	–	–	102	–	–
[9], 10000 nM	–	–	90.6	–	–
[10], 24 h	–	–	–	–	12.9
[10], 48 h	–	–	–	–	16.7
[10], 72 h	–	–	–	–	21
[12], 0.3 µM	–	–	–	0.28	–
[12], 3 µM	–	–	–	0.6	–
[12], 10 µM	–	–	–	0.87	–
[12], 30 µM	–	–	–	0.67	–
[18], 0.3 µM	–	104	–	–	–
[18], 3 µM	–	116	–	–	–
[18], 10 µM	–	120	–	–	–
[18], 30 µM	–	120	–	–	–

drug-induced phospholipidosis [%], [11]
Settings	0.3 µM	0.833333 µM	3.33333 µM	6.66667 µM	10 µM	30 µM
24 h	0.98	-0.51	19.1	56.7	87.1	172
48 h	1.08	-1.67	14.3	36.9	63.3	141
72 h	2.44	-3.52	9.91	23.8	43.5	111

CC(=O)[O-].CC(=O)[O-].N.NC1CCCCC1.[Cl-].[Cl-].[Pt+4] [satraplatin]
Settings	drug sensitivity score	relative viability EC50 [µM]
[2]	–	1.16
[3]	–	3.44
[13]	2.2	–
[14]	4.3	–
[15]	2.4	–
[16]	7	–
[17]	4.7	–
[19]	–	2.21

Settings	SARS-CoV-2 infection rate, [4] [%]	cell count, [18] [%]	cell viability, [5] [%]	cell viability, [6] [%]	cell viability, [7] [%]	cell viability, [8] [%]	cell viability, [9] [%]	morphology score, [12]
1 nM	–	–	113	95.7	106	105	104	–
10 nM	–	–	119	99.7	103	96.5	109	–
0.1 µM	107	107	–	–	–	–	–	0.11
100 nM	–	–	96.6	93.5	93.4	102	103	–
0.3 µM	108	94	–	–	–	–	–	-0.19
1 µM	90	98	–	–	–	–	–	0.26
1000 nM	–	–	94.8	93.3	91.7	73.8	105	–
3 µM	97	93	–	–	–	–	–	0.04
10000 nM	–	–	69	42	68.1	36.1	8.5	–

drug-induced phospholipidosis [%], [11]
Settings	0.3 µM	0.833333 µM	3.33333 µM	6.66667 µM	10 µM
24 h	3.84	0.69	3.32	0.26	5.28
48 h	3.35	-1.19	-0.57	-1.29	-2.3
72 h	2.49	-2.74	0.684	–	–
